What was measured:
Assay type in all cases: in vivo
Conditions in all cases: 250 g/ha, evaluated after 13 days, five-point scale
[1] = system: Ipomoea hederacea (IPOHE); experiment: Pre-emergence herbicide glasshouse test
Method in brief: (§1)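 Pots were sprayed one day after sowing (pre-emergence) or after 8 days' growth (post-emergence) at 250 g/ha unless otherwise stated, in acetone/water 50:50 with 0.5% Tween 20. Plants were grown at 24/16 °C with 14 h light and 65% humidity. Damage was scored at 13 days on a five-point scale (5=81-100% to 1=0-20%).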

[2] = system: Setaria faberi (SETFA); experiment: Pre-emergence herbicide glasshouse test
Method in brief: as §1

[3] = system: Amaranthus palmeri (AMAPA); experiment: Pre-emergence herbicide glasshouse test
Method in brief: as §1

[4] = system: Echinochloa crus-galli (ECHCG); experiment: Pre-emergence herbicide glasshouse test
Method in brief: as §1

[5] = system: Amaranthus retoflexus (AMARE); experiment: Pre-emergence herbicide glasshouse test
Method in brief: as §1

[6] = system: Ipomoea hederacea (IPOHE); experiment: Post-emergence herbicide glasshouse test
Method in brief: as §1

[7] = system: Setaria faberi (SETFA); experiment: Post-emergence herbicide glasshouse test
Method in brief: as §1

[8] = system: Amaranthus palmeri (AMAPA); experiment: Post-emergence herbicide glasshouse test
Method in brief: as §1

[9] = system: Echinochloa crus-galli (ECHCG); experiment: Post-emergence herbicide glasshouse test
Method in brief: as §1

[10] = system: Amaranthus retoflexus (AMARE); experiment: Post-emergence herbicide glasshouse test
Method in brief: as §1

Structure (SMILES) | percentage damage caused to the plant, IPOHE [1] | percentage damage caused to the plant, SETFA [2] | percentage damage caused to the plant, AMAPA [3] | percentage damage caused to the plant, ECHCG [4] | percentage damage caused to the plant, AMARE [5] | percentage damage caused to the plant, IPOHE [6] | percentage damage caused to the plant, SETFA [7] | percentage damage caused to the plant, AMAPA [8] | percentage damage caused to the plant, ECHCG [9] | percentage damage caused to the plant, AMARE [10]
O=CCCc1nc(C(F)(F)F)nc2cccc(Oc3ncc(Cl)cn3)c12 [Compound 1.038, 3-[5-(5-chloropyrimidin-2-yl)oxy-2-(trifluoromethyl)quinazolin-4-yl]propanal] | 1 (1=0-20%) | 1 (1=0-20%) | 1 (1=0-20%) | 1 (1=0-20%) | 2 (2=21-40%) | 3 (3=41-60%) | 1 (1=0-20%) | 3 (3=41-60%) | 1 (1=0-20%) | 4 (4=61-80%)
OCCCc1nc(C(F)(F)F)nc2cccc(Oc3ncc(Cl)cn3)c12 [Compound 1.039, 3-[5-(5-chloropyrimidin-2-yl)oxy-2-(trifluoromethyl)quinazolin-4-yl]propan-1-ol] | 1 (1=0-20%) | 2 (2=21-40%) | 2 (2=21-40%) | 2 (2=21-40%) | 3 (3=41-60%) | 3 (3=41-60%) | 1 (1=0-20%) | 3 (3=41-60%) | 1 (1=0-20%) | 4 (4=61-80%)
FC(F)(F)c1nc(C2CC2)c2c(Oc3ncc(Cl)cn3)cccc2n1 [Compound 1.041, 5-(5-chloropyrimidin-2-yl)oxy-4-cyclopropyl-2-(trifluoromethyl)quinazoline] | 1 (1=0-20%) | 5 (5=81-100%) | 5 (5=81-100%) | 3 (3=41-60%) | 2 (2=21-40%) | 2 (2=21-40%) | 5 (5=81-100%) | 5 (5=81-100%) | 3 (3=41-60%) | 5 (5=81-100%)
FC(F)(F)c1nc(CCC2CCCCC2)c2c(Oc3ncc(Cl)cn3)cccc2n1 [Compound 1.045] | 1 (1=0-20%) | 4 (4=61-80%) | 5 (5=81-100%) | 4 (4=61-80%) | 3 (3=41-60%) | 3 (3=41-60%) | 2 (2=21-40%) | 4 (4=61-80%) | 2 (2=21-40%) | 4 (4=61-80%)
CCO/N=C\CCc1nc(C(F)(F)F)nc2cccc(Oc3ncc(Cl)cn3)c12 [Compound 1.047] | 2 (2=21-40%) | 5 (5=81-100%) | 4 (4=61-80%) | 5 (5=81-100%) | 4 (4=61-80%) | 5 (5=81-100%) | 5 (5=81-100%) | 4 (4=61-80%) | 5 (5=81-100%) | 5 (5=81-100%)
FC(F)(F)c1nc(CBr)c2c(Oc3ncc(Cl)cn3)cccc2n1 [Compound 1.048, 4-(bromomethyl)-5-(5-chloropyrimidin-2-yl)oxy-2-(trifluoromethyl)quinazoline] | 1 (1=0-20%) | 4 (4=61-80%) | 5 (5=81-100%) | 3 (3=41-60%) | 5 (5=81-100%) | 2 (2=21-40%) | 4 (4=61-80%) | 4 (4=61-80%) | 2 (2=21-40%) | 5 (5=81-100%)
Cc1ccc(Oc2ncc(Cl)cn2)c2c(CCC3CC3)nc(C(F)(F)F)nc12 [Compound 1.059] | 1 (1=0-20%) | 1 (1=0-20%) | 1 (1=0-20%) | 1 (1=0-20%) | 1 (1=0-20%) | 3 (3=41-60%) | 1 (1=0-20%) | 2 (2=21-40%) | 1 (1=0-20%) | 2 (2=21-40%)
FC(F)(F)c1nc(CCC2CC2)c2c(Oc3ncc(Cl)cn3)ccc(Br)c2n1 [Compound 1.060] | 1 (1=0-20%) | 2 (2=21-40%) | 2 (2=21-40%) | 1 (1=0-20%) | 1 (1=0-20%) | 3 (3=41-60%) | 2 (2=21-40%) | 3 (3=41-60%) | 1 (1=0-20%) | 3 (3=41-60%)
CC(=NOCC1CC1)c1nc(C(F)(F)F)nc2cccc(Oc3ncc(Cl)cn3)c12 [Compound 1.065] | 1 (1=0-20%) | 1 (1=0-20%) | 1 (1=0-20%) | 1 (1=0-20%) | 1 (1=0-20%) | 1 (1=0-20%) | 1 (1=0-20%) | 2 (2=21-40%) | 1 (1=0-20%) | 2 (2=21-40%)
CON=C(C)c1nc(C(F)(F)F)nc2cccc(Oc3ncc(Cl)cn3)c12 [Compound 1.066] | 1 (1=0-20%) | 1 (1=0-20%) | 4 (4=61-80%) | 1 (1=0-20%) | 1 (1=0-20%) | 1 (1=0-20%) | 1 (1=0-20%) | 2 (2=21-40%) | 1 (1=0-20%) | 1 (1=0-20%)
C=CCON=CCCc1nc(C(F)(F)F)nc2cccc(Oc3ncc(Cl)cn3)c12 [Compound 1.067] | 1 (1=0-20%) | 5 (5=81-100%) | 5 (5=81-100%) | 5 (5=81-100%) | 3 (3=41-60%) | 3 (3=41-60%) | 5 (5=81-100%) | 5 (5=81-100%) | 4 (4=61-80%) | 4 (4=61-80%)
FC(F)(F)c1nc(CCC=NOCC2CC2)c2c(Oc3ncc(Cl)cn3)cccc2n1 [Compound 1.068] | 1 (1=0-20%) | 5 (5=81-100%) | 5 (5=81-100%) | 3 (3=41-60%) | 4 (4=61-80%) | 1 (1=0-20%) | 5 (5=81-100%) | 5 (5=81-100%) | 5 (5=81-100%) | 5 (5=81-100%)
FC(F)(F)c1nc(-c2ncccn2)c2c(Oc3ncc(Cl)cn3)cccc2n1 [Compound 1.069] | 1 (1=0-20%) | 1 (1=0-20%) | 1 (1=0-20%) | 1 (1=0-20%) | 1 (1=0-20%) | 1 (1=0-20%) | 1 (1=0-20%) | 1 (1=0-20%) | 1 (1=0-20%) | 1 (1=0-20%)
O=C(c1ccc(Cl)cn1)c1nc(C(F)(F)F)nc2cccc(Oc3ncc(Cl)cn3)c12 [Compound 1.070] | 1 (1=0-20%) | 1 (1=0-20%) | 5 (5=81-100%) | 1 (1=0-20%) | 5 (5=81-100%) | 1 (1=0-20%) | 1 (1=0-20%) | 1 (1=0-20%) | 1 (1=0-20%) | 2 (2=21-40%)

— patent publication US20250179051A1, “PYRIMIDINLY-OXY-QUINOLINE BASED HERBICIDAL COMPOUNDS” (SYNGENTA CROP PROTECTION AG, priority 2022, published 2025)
